One data set addresses T1, M2 muscarinic receptor (Rattus norvegicus, UniProt P10980).
T1 construct: Submandibular glands and heart were isolated and placed in ice cold homogenising buffer; from tissue; host or cells: rat heart membrane homogenate
T1 sequence (P10980 1-466): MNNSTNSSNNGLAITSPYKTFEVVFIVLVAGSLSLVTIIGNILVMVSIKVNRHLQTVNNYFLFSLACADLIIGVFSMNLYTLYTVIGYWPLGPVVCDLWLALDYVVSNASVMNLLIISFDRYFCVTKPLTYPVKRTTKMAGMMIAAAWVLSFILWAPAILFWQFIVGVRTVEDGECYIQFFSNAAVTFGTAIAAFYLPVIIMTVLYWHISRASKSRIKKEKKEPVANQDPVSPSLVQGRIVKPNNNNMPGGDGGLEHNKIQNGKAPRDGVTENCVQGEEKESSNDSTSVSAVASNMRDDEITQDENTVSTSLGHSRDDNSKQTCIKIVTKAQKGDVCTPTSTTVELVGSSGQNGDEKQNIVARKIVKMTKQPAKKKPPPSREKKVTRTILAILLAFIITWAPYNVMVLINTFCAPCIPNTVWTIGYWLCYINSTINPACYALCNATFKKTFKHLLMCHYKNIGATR
Kind of data set: Radioligand binding assay, [3H]-N-methylscopolamine, rat heart membranes. The following applies: [3H]-NMS binding, Ki by Cheng & Prusoff; for Ki: read-out: M2 pki. As for the experimental part: (§1) Radioligand Binding Assays: • The affinity of test compounds for M2 and M3 muscarinic receptor subtypes was determined by [^3H]-N-methylscopolamine binding studies using rat heart and submandibular gland respectively as described by Moriya et al., (Life Sci, 1999, 64(25):2351-2358) with minor modifications. Membrane preparation: Submandibular glands and heart were isolated and placed in ice cold homogenising buffer (HEPES 20 mM, 10 mM EDTA, pH 7.4) immediately after sacrifice. The tissues were homogenised in 10 volumes of homogenising buffer and the homogenate was filtered through two layers of wet gauze and filtrate was centrifuged at 500 g for 10 min. The supernatant was subsequently centrifuged at 40,000 g for 20 min. The pellet thus obtained was resuspended in same volume of assay buffer (HEPES 20 mM, EDTA 5 mM, pH 7.4) and were stored at −70° C. until the time of assay. Ligand binding assay: The compounds were dissolved and diluted in DMSO. The membrane homogenates (150-250 μg protein) were incubated in 250 μl of assay buffer (HEPES 20 mM, pH 7.4) at 24-25° C. for 3 h. Non-specific binding was determined in the presence of 1 μM atropine. The incubation was terminated by vacuum filtration over GF/B fiber filters(Wallac). The filters were then washed with ice cold 50 mM Tris HCl buffer (pH 7.4). The filter mats were dried and bound radioactivity retained on filters was counted. The IC50 & Kd were estimated by using the non-linear curve fitting program using G Pad Prism software. The value of inhibition constant Ki was calculated from competitive binding studies by using Cheng & Prusoff equation (Biochem Pharmacol, 1973, 22: 3099-3108), Ki=IC50/(1+L/Kd), where L is the concentration of [^3H]NMS used in the particular experiment. pki is—[log Ki].

Another data set concerns the target T2, M3 muscarinic receptor (Rattus norvegicus, UniProt P08483).
T2 construct: Submandibular glands and heart were isolated and placed in ice cold homogenising buffer; from tissue; host or cells: rat submandibular gland membrane homogenate
Kind of data set: Radioligand binding assay, [3H]-N-methylscopolamine, rat submandibular gland membranes. The following applies: [3H]-NMS binding, Ki by Cheng & Prusoff; for Ki: read-out: M3 pki. As for the experimental part:
as §1

T2 sequence (P08483 whole entry): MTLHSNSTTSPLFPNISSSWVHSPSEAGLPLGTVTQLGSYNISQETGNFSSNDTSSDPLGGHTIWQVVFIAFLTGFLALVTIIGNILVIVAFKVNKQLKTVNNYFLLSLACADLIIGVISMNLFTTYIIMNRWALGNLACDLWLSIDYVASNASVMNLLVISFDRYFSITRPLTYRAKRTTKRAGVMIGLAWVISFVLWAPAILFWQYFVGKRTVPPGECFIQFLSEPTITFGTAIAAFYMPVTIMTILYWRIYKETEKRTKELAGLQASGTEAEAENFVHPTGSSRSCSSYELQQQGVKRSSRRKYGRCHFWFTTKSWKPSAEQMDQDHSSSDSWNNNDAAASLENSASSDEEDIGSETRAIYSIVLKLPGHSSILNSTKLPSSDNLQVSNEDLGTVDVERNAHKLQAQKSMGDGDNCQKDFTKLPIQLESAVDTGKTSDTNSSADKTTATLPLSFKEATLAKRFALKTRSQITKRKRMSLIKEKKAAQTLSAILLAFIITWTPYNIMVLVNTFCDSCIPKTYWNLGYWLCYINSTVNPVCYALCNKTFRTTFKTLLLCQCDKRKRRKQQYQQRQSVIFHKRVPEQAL

As to `Cc1c(-c2ccccc2)oc2c(C(=O)N[C@H]3[C@@H]4CN(Cc5ccc(C#N)cc5)C[C@@H]43)cccc2c1=O` [Compound No. 2, (1α,5α,6α)-6N-[3-(4-cyanobenzyl)-3-azabicyclo[3.1.0]hexyl]-3-methyl-4-oxo-2-phenyl-4H-1-benzopyran-8-carboxamide], the Ki at M2 muscarinic receptor and on M3 muscarinic receptor was greater than 10 µM each time.

Take `Cc1c(-c2ccccc2)oc2c(C(=O)N[C@H]3[C@@H]4CN(Cc5ccccc5)C[C@@H]43)cccc2c1=O` [Compound No. 1, (1α,5α,6α)-6N-[3-benzyl-3-azabicyclo[3.1.0]hexyl]-3methyl-4-oxo-2-phenyl-4H-1-benzopyran-8-carboxamide]: the melting point (in general, the temperature, or range, at which the solid turns liquid) was in the range of 182 to 184 °C. The Ki at M2 muscarinic receptor was greater than 10 µM. Moreover, the Ki at M3 muscarinic receptor is greater than 10 µM.

`Cc1c(-c2ccccc2)oc2c(C(=O)NCC34CC3CN(Cc3ccccc3)C4)cccc2c1=O` (centres unmarked) [Compound No. 5, N-[3-benzyl-3-azabicyclo[3.1.0]hexyl-1-(aminomethyl)-yl]-3-methyl-4-oxo-2-phenyl-4H-1-benzopyran-8-carboxamide]: the Ki on M2 muscarinic receptor and at M3 muscarinic receptor was greater than 1 µM throughout.

As to “(1α,5α,6α)-N-[3-[4-methyl-3-pentenyl]-3-azabicylo[3.1.0]hexyl-6-(aminomethyl)-3-methyl-4-oxo-2-phenyl-4H-1-benzo-pyran-8-carboxamide [Compound No. 4]”, the M2 pki at M2 muscarinic receptor was less than 6. At M3 muscarinic receptor, this molecule had an M3 pki of less than 6.

Take `Cc1c(-c2ccccc2)oc2c(C(=O)NCC3C4CN(Cc5ccccc5)CC34)cccc2c1=O` (stereo not drawn) [Compound No. 3, (1α,5α,6α)-N-[3-benzyl-3-azabicyclo[3.1.0]hexyl-6-(aminomethyl)-yl]-3-methyl-4-oxo-2-phenyl-4H-1-benzopyran-8-carboxamide]: at M2 muscarinic receptor, the M2 pki is reported as less than 5.3. Besides, the M3 pki on M3 muscarinic receptor was 5.1.

Values taken from patent publication US7501443B2, “Flavaxate derivatives as muscarinic receptor antagonists” (Ranbaxy Laboratories Limited, priority 2002, dated 2009).
